Reference: the NIST ThermoML archive (doi:10.1016/j.jct.2019.03.022)

Settings: Liquid, Frequency=5 MHz, Pulse-echo method

Cc1ccc(C)cc1 [1,4-dimethylbenzene]
Settings | speed of sound [m/s]
305.93 K, 3690 kPa | 1296.5
305.97 K, 40270 kPa | 1464.5
305.98 K, 5250 kPa | 1304.4
305.98 K, 45030 kPa | 1483.5
305.98 K, 50870 kPa | 1506
305.99 K, 1000 kPa | 1281.8
305.99 K, 35160 kPa | 1443.6
306 K, 4900 kPa | 1302.5
306 K, 13840 kPa | 1347.7
306 K, 30490 kPa | 1423.8
306.02 K, 2050 kPa | 1287.2
306.03 K, 9400 kPa | 1325.6
306.05 K, 6960 kPa | 1312.9
306.06 K, 19900 kPa | 1376.2
306.07 K, 2050 kPa | 1287.1
306.07 K, 16500 kPa | 1360.1
306.07 K, 24630 kPa | 1397.8
306.1 K, 29650 kPa | 1419.7
306.14 K, 26930 kPa | 1407.8
306.18 K, 28370 kPa | 1413.9
323.47 K, 41260 kPa | 1410.2
323.47 K, 49810 kPa | 1445.3
323.47 K, 59650 kPa | 1483.5
323.48 K, 34540 kPa | 1381.1
323.48 K, 54770 kPa | 1464.8
323.48 K, 55430 kPa | 1467.4
323.49 K, 46870 kPa | 1433.4
323.51 K, 49380 kPa | 1443.5
323.51 K, 65910 kPa | 1506.7
323.52 K, 30290 kPa | 1361.8
323.53 K, 11470 kPa | 1269.8
323.54 K, 1060 kPa | 1211.5
323.54 K, 6060 kPa | 1240.3
323.54 K, 44230 kPa | 1422.4
323.54 K, 45010 kPa | 1425.6
323.55 K, 18570 kPa | 1306.1
323.56 K, 210 kPa | 1206.4
323.57 K, 490 kPa | 1208.1
323.57 K, 2600 kPa | 1220.4
323.57 K, 10070 kPa | 1262.1
323.57 K, 20900 kPa | 1317.5
323.57 K, 39580 kPa | 1402.7
323.57 K, 44830 kPa | 1424.7
323.58 K, 5070 kPa | 1234.5
323.58 K, 6090 kPa | 1240.3
323.58 K, 11110 kPa | 1267.7
323.58 K, 34830 kPa | 1382
323.59 K, 7490 kPa | 1248
323.59 K, 17890 kPa | 1302.5
323.59 K, 25130 kPa | 1337.7
323.59 K, 30210 kPa | 1361.3
323.6 K, 15130 kPa | 1288.6
335.95 K, 55000 kPa | 1427.5
335.95 K, 65380 kPa | 1467.9
335.96 K, 61040 kPa | 1451.3
335.97 K, 50590 kPa | 1409.6
335.98 K, 1230 kPa | 1164
335.98 K, 2630 kPa | 1172.6
335.98 K, 5600 kPa | 1190.4
335.98 K, 45230 kPa | 1387.1
335.99 K, 280 kPa | 1158
335.99 K, 570 kPa | 1159.8
335.99 K, 10300 kPa | 1217.5
335.99 K, 20370 kPa | 1271.4
336 K, 10270 kPa | 1217.2
336 K, 24830 kPa | 1293.8
336 K, 30890 kPa | 1323
336 K, 34840 kPa | 1341.2
336.01 K, 14980 kPa | 1243.1
336.01 K, 20750 kPa | 1273.3
336.02 K, 40670 kPa | 1367.2
336.03 K, 41380 kPa | 1370.3
336.05 K, 41270 kPa | 1369.8
336.06 K, 31080 kPa | 1323.6
348.25 K, 40 kPa | 1108.8
348.27 K, 2120 kPa | 1122.5
348.28 K, 4090 kPa | 1135.2
348.29 K, 2590 kPa | 1125.5
348.3 K, 2110 kPa | 1122.3
348.32 K, 1270 kPa | 1116.8
348.32 K, 8600 kPa | 1162.9
348.32 K, 8900 kPa | 1164.7
348.35 K, 10880 kPa | 1176.3
348.36 K, 15220 kPa | 1201.1
348.36 K, 20050 kPa | 1227.6
348.37 K, 14620 kPa | 1197.7
348.37 K, 60580 kPa | 1413.4
348.39 K, 59820 kPa | 1410.3
348.39 K, 64180 kPa | 1427.6
348.4 K, 64670 kPa | 1429.6
348.41 K, 59890 kPa | 1410.6
348.42 K, 45170 kPa | 1348.7
348.42 K, 49930 kPa | 1369.4
348.42 K, 54750 kPa | 1389.6
348.43 K, 29340 kPa | 1275
348.43 K, 33900 kPa | 1297.2
348.43 K, 39830 kPa | 1324.8
348.45 K, 24930 kPa | 1252.9
355.89 K, 12280 kPa | 1158.2
355.92 K, 15640 kPa | 1177.7
355.94 K, 920 kPa | 1085.7
355.94 K, 20950 kPa | 1207.3
355.95 K, 490 kPa | 1082.6
355.95 K, 2620 kPa | 1097
355.95 K, 25050 kPa | 1229.2
355.95 K, 31130 kPa | 1260.2
355.96 K, 10930 kPa | 1149.9
355.98 K, 270 kPa | 1081
355.98 K, 5370 kPa | 1115.1
355.98 K, 65160 kPa | 1410.3
356 K, 59390 kPa | 1387.1
356.02 K, 41360 kPa | 1308.9
356.02 K, 45060 kPa | 1325.7
356.04 K, 54960 kPa | 1368.5
356.05 K, 34600 kPa | 1276.9
356.08 K, 50520 kPa | 1349.5
373.53 K, 2520 kPa | 1031.7
373.53 K, 5450 kPa | 1052.5
373.54 K, 2530 kPa | 1031.7
373.55 K, 950 kPa | 1020.1
373.57 K, 44340 kPa | 1271.8
373.58 K, 570 kPa | 1017.1
373.58 K, 49640 kPa | 1296.2
373.59 K, 240 kPa | 1014.6
373.6 K, 10260 kPa | 1084.6
373.6 K, 19750 kPa | 1143.4
373.6 K, 29800 kPa | 1199.1
373.6 K, 29850 kPa | 1199.3
373.6 K, 35000 kPa | 1226.1
373.61 K, 14920 kPa | 1114.2
373.61 K, 59070 kPa | 1337.5
373.62 K, 20290 kPa | 1146.4
373.62 K, 39790 kPa | 1249.8
373.62 K, 40800 kPa | 1254.9
373.62 K, 58970 kPa | 1337.1
373.63 K, 24920 kPa | 1172.7
373.63 K, 54980 kPa | 1319.8
373.64 K, 64880 kPa | 1361.7
398.19 K, 37260 kPa | 1168.3
398.2 K, 220 kPa | 923.76
398.2 K, 29920 kPa | 1127.9
398.2 K, 37270 kPa | 1168.3
398.2 K, 40070 kPa | 1182.9
398.2 K, 54810 kPa | 1254.7
398.2 K, 60130 kPa | 1278.8
398.21 K, 500 kPa | 926.17
398.21 K, 34890 kPa | 1155.4
398.21 K, 44950 kPa | 1207.5
398.21 K, 64730 kPa | 1299
398.22 K, 1040 kPa | 930.76
398.22 K, 20010 kPa | 1068.5
398.22 K, 24890 kPa | 1098.6
398.23 K, 50040 kPa | 1232.3
398.24 K, 5190 kPa | 964.55
398.24 K, 15110 kPa | 1036.5
398.24 K, 31220 kPa | 1135.2
398.25 K, 2490 kPa | 942.77
398.25 K, 10300 kPa | 1002.9
398.25 K, 19720 kPa | 1066.6
398.25 K, 31220 kPa | 1135.2
398.26 K, 12650 kPa | 1019.5
422.57 K, 5690 kPa | 886.27
422.65 K, 2630 kPa | 858.44
422.7 K, 14830 kPa | 959.38
422.72 K, 550 kPa | 838.3
422.72 K, 50170 kPa | 1171.8
422.73 K, 190 kPa | 834.7
422.73 K, 28590 kPa | 1052.1
422.73 K, 54780 kPa | 1194.6
422.74 K, 1230 kPa | 844.88
422.74 K, 9190 kPa | 915.48
422.74 K, 44830 kPa | 1144.4
422.75 K, 780 kPa | 840.37
422.75 K, 10020 kPa | 922.14
422.75 K, 19940 kPa | 995.75
422.75 K, 24810 kPa | 1028.2
422.75 K, 29890 kPa | 1060
422.75 K, 64580 kPa | 1240.2
422.76 K, 59900 kPa | 1218.7
422.77 K, 34850 kPa | 1089.3
422.77 K, 40720 kPa | 1122.3
446.94 K, 5130 kPa | 800.91
446.99 K, 10180 kPa | 848.37
446.99 K, 14830 kPa | 887.97
447 K, 19890 kPa | 927.32
447.01 K, 7300 kPa | 821.88
447.02 K, 1020 kPa | 756.94
447.02 K, 24900 kPa | 963.22
447.03 K, 22500 kPa | 946.32
447.07 K, 300 kPa | 748.43
447.07 K, 580 kPa | 751.73
447.08 K, 49880 kPa | 1113.3
447.08 K, 64750 kPa | 1187.3
447.09 K, 30510 kPa | 1000.7
447.11 K, 54450 kPa | 1137
447.12 K, 40150 kPa | 1059.5
447.13 K, 35270 kPa | 1030.4
447.13 K, 45010 kPa | 1086.9
447.13 K, 59760 kPa | 1163.3

Cc1ccccc1 [toluene]
Settings | speed of sound [m/s]
323.29 K, 10200 kPa | 1253.2
323.32 K, 20480 kPa | 1305.4
323.32 K, 20600 kPa | 1305.9
323.34 K, 31540 kPa | 1356.7
323.37 K, 44870 kPa | 1413.5
323.38 K, 60790 kPa | 1475.5
323.39 K, 60820 kPa | 1475.5
373.82 K, 7570 kPa | 1046.5
373.83 K, 2170 kPa | 1007.9
373.83 K, 21270 kPa | 1132.5
373.85 K, 35520 kPa | 1209.3
373.87 K, 64470 kPa | 1340.7
373.9 K, 50350 kPa | 1280
422.93 K, 6580 kPa | 863.73
422.98 K, 20740 kPa | 974.49
423.01 K, 36450 kPa | 1073.4
423.04 K, 56200 kPa | 1176.9

O [water]
Settings | speed of sound [m/s]
306.13 K, 1030 kPa | 1517.3
306.14 K, 4950 kPa | 1524
306.15 K, 19980 kPa | 1549.5
306.15 K, 59750 kPa | 1616.5
306.16 K, 29980 kPa | 1566.5
306.16 K, 39950 kPa | 1583.3
306.16 K, 49950 kPa | 1600.1
357.97 K, 20280 kPa | 1593.1
357.99 K, 400 kPa | 1553.7
358 K, 30380 kPa | 1612.5
358 K, 40230 kPa | 1630.9
358.01 K, 50080 kPa | 1649
358.03 K, 59980 kPa | 1666.8
420.93 K, 1180 kPa | 1471.5
421.06 K, 20130 kPa | 1520.6
421.12 K, 40030 kPa | 1568.6
421.2 K, 59900 kPa | 1613.1
